Measurements published in patent publication US20250154115A1, “ARYLBENZOISOXAZOLE COMPOUNDS AS IP6K AND IPMK INHIBITORS AND METHODS OF USE THEREOF” (THE UNIVERSITY OF NORTH CAROLINA AT CHAPEL HILL, priority 2022, published 2025).
pIC50: −log10 of the molar value. Structures can show the parent of a compound that is named as a salt.

Columns and labels:
IPMK = IPMK (Homo sapiens (Human), UniProt Q8NFU5); experiment: Enzyme-coupled assay, IPMK IC50; assay type: biochemical
IP6K1 = IP6K1 (Homo sapiens (Human), UniProt Q92551); experiment: Enzyme-coupled assay of IP6K1 activity (Dipp1-coupled, malachite green Pi release); assay type: biochemical
Description: (§1) […] The cells were disrupted using a constant cell disruption system (Constant Systems) under 20 kPsi.
(§2) Pi release was determined with a malachite green colorimetric assay.^45 Where indicated, TNP (Cayman Chemical) was added to the assays (FIG. 2A-E).

IP6K3 = IP6K3 (Homo sapiens (Human), UniProt Q96PC2); experiment: Enzyme-coupled assay of IP6K3 activity (Dipp1-coupled, malachite green Pi release); assay type: biochemical
IP6K2 = IP6K2 (Homo sapiens (Human), UniProt Q9UHH9); experiment: Enzyme-coupled assay of IP6K2 activity (Dipp1-coupled, malachite green Pi release); assay type: biochemical
Description: as §1, §2

diet-induced obese mice = conditions: cited from earlier work
[1] = determined from enzyme-coupled assays

Sequence of IP6K3 (Q96PC2 whole entry): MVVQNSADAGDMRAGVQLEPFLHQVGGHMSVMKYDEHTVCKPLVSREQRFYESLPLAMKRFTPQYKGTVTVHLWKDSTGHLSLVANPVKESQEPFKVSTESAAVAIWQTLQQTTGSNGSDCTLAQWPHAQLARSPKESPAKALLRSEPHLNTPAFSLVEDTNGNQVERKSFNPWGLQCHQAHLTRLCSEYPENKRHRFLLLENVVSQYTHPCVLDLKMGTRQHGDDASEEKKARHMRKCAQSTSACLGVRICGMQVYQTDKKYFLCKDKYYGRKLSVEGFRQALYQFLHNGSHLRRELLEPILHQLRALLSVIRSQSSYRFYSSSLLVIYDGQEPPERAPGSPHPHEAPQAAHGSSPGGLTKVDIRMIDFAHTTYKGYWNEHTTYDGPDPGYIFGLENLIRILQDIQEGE
Sequence of IP6K1 (Q92551 whole entry): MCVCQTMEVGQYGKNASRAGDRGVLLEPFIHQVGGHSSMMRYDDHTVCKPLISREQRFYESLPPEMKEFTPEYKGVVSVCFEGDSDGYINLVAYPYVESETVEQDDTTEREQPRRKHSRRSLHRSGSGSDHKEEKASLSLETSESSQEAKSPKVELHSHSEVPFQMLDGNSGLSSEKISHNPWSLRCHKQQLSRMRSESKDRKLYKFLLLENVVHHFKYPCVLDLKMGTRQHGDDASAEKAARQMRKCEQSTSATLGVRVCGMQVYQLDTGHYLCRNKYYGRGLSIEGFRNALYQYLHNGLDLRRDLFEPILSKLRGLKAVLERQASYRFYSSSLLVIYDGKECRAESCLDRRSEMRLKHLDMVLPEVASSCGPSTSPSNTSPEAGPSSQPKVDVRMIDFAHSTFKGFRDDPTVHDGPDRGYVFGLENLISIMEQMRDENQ
Sequence of IP6K2 (Q9UHH9 whole entry): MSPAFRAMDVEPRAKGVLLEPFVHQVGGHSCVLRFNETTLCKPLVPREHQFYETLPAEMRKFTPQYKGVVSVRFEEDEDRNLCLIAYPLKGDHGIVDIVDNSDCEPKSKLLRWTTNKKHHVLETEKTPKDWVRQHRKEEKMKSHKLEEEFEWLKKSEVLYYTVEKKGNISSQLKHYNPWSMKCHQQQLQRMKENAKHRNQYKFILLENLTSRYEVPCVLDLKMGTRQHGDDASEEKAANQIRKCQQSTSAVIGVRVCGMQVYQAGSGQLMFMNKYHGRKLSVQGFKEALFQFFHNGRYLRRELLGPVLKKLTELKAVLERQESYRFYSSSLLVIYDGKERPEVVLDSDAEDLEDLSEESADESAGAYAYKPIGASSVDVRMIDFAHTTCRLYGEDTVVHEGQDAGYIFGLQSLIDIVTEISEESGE
Sequence of IPMK (Q8NFU5 whole entry, species assumed): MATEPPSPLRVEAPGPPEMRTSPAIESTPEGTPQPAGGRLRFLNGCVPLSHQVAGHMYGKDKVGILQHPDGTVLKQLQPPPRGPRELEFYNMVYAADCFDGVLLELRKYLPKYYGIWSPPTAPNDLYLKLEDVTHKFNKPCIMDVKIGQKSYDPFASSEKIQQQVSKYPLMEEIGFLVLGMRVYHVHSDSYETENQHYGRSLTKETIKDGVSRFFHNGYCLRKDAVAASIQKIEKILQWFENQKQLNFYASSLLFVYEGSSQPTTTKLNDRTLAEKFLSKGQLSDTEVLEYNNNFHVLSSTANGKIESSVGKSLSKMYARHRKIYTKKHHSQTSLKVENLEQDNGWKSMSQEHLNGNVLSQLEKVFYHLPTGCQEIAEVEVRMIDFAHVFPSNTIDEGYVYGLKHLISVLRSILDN

Compound	pIC50 (IPMK; enzyme-coupled assay, Table 4)	pIC50 (IP6K1; enzyme-coupled assay, Table 4)	pIC50 (IP6K3; enzyme-coupled assay, Table 4)	pIC50 (IP6K2; enzyme-coupled assay, Table 4)	also measured
O=c1[nH]c(-c2ccc3noc(-c4ccccc4)c3c2)no1 [Cmpd 124]					pIC50 (IPMK; [1]): 7.00 to 8.00; pIC50 (IP6K1; [1]): 6.00 to 7.00; pIC50 (IP6K3; [1]): 6.00 to 7.00; pIC50 (IP6K2; [1]): 6.00 to 7.00
CC(C)NC(=O)c1ccc2noc(-c3ccccc3)c2c1 [Compound 22]					IPMK IC50 (IPMK; enzyme-coupled assay, Table 2): −; pIC50 (IP6K1; enzyme-coupled assay, Table 2): 4.00 to 6.00; pIC50 (IP6K3; enzyme-coupled assay, Table 2): 4.00 to 6.00; pIC50 (IP6K2; enzyme-coupled assay, Table 2): 6.00 to 7.00
CNC(=O)c1ccc2noc(-c3ccc(-c4ccccc4)cc3)c2c1 [Compound 26]					pIC50 (IPMK; enzyme-coupled assay, Table 2): 7.00 to 8.00; pIC50 (IP6K1; enzyme-coupled assay, Table 2): 7.00 to 8.00; pIC50 (IP6K3; enzyme-coupled assay, Table 2): 6.00 to 7.00; pIC50 (IP6K2; enzyme-coupled assay, Table 2): 6.00 to 7.00
O=C(O)c1ccc2noc(-c3ccc(NC(=O)c4ccc(Cl)cc4)cc3)c2c1 [Compound 45]					pIC50 (IPMK; enzyme-coupled assay, Table 2): 4.00 to 6.00; pIC50 (IP6K1; enzyme-coupled assay, Table 2): 6.00 to 7.00; pIC50 (IP6K3; enzyme-coupled assay, Table 2): 4.00 to 6.00; pIC50 (IP6K2; enzyme-coupled assay, Table 2): 6.00 to 7.00
CN(C)CCOc1ccc(-c2onc3ccc(-c4nnn[nH]4)cc23)cc1 [Compound 79]	4.00 to 6.00	6.00 to 7.00	6.00 to 7.00	6.00 to 7.00	
FC(F)(F)Oc1ccc(-c2onc3ccc(-c4nnn[nH]4)cc23)cc1 [Compound 66]	7.00 to 8.00	7.00 to 8.00	6.00 to 7.00	7.00 to 8.00	
O=C(O)c1ccc2noc(-c3ccc(C(=O)NCCC4CC4)cc3)c2c1 [Compound 39]					pIC50 (IPMK; enzyme-coupled assay, Table 2): 6.00 to 7.00; pIC50 (IP6K1; enzyme-coupled assay, Table 2): 6.00 to 7.00; pIC50 (IP6K3; enzyme-coupled assay, Table 2): 6.00 to 7.00; pIC50 (IP6K2; enzyme-coupled assay, Table 2): 6.00 to 7.00
CC(C)C(=O)Nc1ccc(-c2onc3ccc(C(=O)O)cc23)cc1 [Compound 36]					pIC50 (IPMK; enzyme-coupled assay, Table 2): 4.00 to 6.00; pIC50 (IP6K3; enzyme-coupled assay, Table 2): 6.00 to 7.00; pIC50 (IP6K2; enzyme-coupled assay, Table 2): 6.00 to 7.00
c1cncc(-c2ccc(-c3onc4ccc(-c5nnn[nH]5)cc34)cc2)c1 [Compound 69]	> 8.00	7.00 to 8.00	6.00 to 7.00	7.00 to 8.00	
Cc1cc(C)cc(-c2onc3ccc(-c4nnn[nH]4)cc23)c1 [Compound 65]	7.00 to 8.00	7.00 to 8.00	6.00 to 7.00	7.00 to 8.00	
Clc1cnc(Oc2cccc(-c3onc4ccc(-c5nnn[nH]5)cc34)c2)c(Cl)c1 [Compound 80]	7.00 to 8.00	7.00 to 8.00	7.00 to 8.00	7.00 to 8.00	
O=C(Nc1ccc(-c2onc3ccc(-c4noc(=O)[nH]4)cc23)cc1)C1CC1 [Cmpd 126]					pIC50 (IPMK; [1]): 7.00 to 8.00; pIC50 (IP6K1; [1]): 6.00 to 7.00; pIC50 (IP6K3; [1]): 7.00 to 8.00; pIC50 (IP6K2; [1]): 6.00 to 7.00
O=[N+]([O-])c1ccc(CNc2nc(NCc3cccc(C(F)(F)F)c3)nc3nc[nH]c23)cc1 [TNP, N2-(m-Trifluorobenzyl)-N6-(p-nitrobenzyl)purine]					Effect of treatment on obesity, insulin resistance and fatty liver (diet-induced obese mice): ameliorates obesity, insulin resistance and fatty liver
CC(C)NC(=O)c1ccc(-c2onc3ccc(C(=O)O)cc23)cc1 [Compound 38]					pIC50 (IPMK; enzyme-coupled assay, Table 2): 4.00 to 6.00; pIC50 (IP6K3; enzyme-coupled assay, Table 2): 6.00 to 7.00; pIC50 (IP6K2; enzyme-coupled assay, Table 2): 6.00 to 7.00
c1ccc(-c2onc3ccc(-c4nc[nH]n4)cc23)cc1 [Compound 60]	7.00 to 8.00	4.00 to 6.00	4.00 to 6.00	6.00 to 7.00	
O=C(O)c1ccc2noc(-c3cccc(-c4ccccc4)c3)c2c1 [Compound 34]					pIC50 (IPMK; enzyme-coupled assay, Table 2): 7.00 to 8.00; pIC50 (IP6K3; enzyme-coupled assay, Table 2): 6.00 to 7.00; pIC50 (IP6K2; enzyme-coupled assay, Table 2): 6.00 to 7.00
O=C(O)c1ccc2noc(-c3ccc(NC(=O)C4CC4)cc3)c2c1 [Compound 35]					pIC50 (IPMK; enzyme-coupled assay, Table 2): 4.00 to 6.00; pIC50 (IP6K1; enzyme-coupled assay, Table 2): 4.00 to 6.00; pIC50 (IP6K3; enzyme-coupled assay, Table 2): 6.00 to 7.00; pIC50 (IP6K2; enzyme-coupled assay, Table 2): 4.00 to 6.00
c1ccc(Oc2ccc(-c3onc4ccc(-c5nnn[nH]5)cc34)cc2)cc1 [Compound 70]	> 8.00	4.00 to 6.00	6.00 to 7.00	6.00 to 7.00	
O=c1[nH]c(-c2ccc3noc(-c4ccc(-c5ccccc5)cc4)c3c2)no1 [Cmpd 125]					pIC50 (IPMK; [1]): > 8.00; pIC50 (IP6K1; [1]): 7.00 to 8.00; pIC50 (IP6K3; [1]): > 8.00; pIC50 (IP6K2; [1]): 7.00 to 8.00
c1ccc(-c2onc3ccc(-n4cncn4)cc23)cc1 [Compound 61]	7.00 to 8.00	4.00 to 6.00	4.00 to 6.00	4.00 to 6.00	
COc1ccccc1-c1onc2ccc(-c3nnn[nH]3)cc12 [Compound 77]	7.00 to 8.00	7.00 to 8.00	6.00 to 7.00	7.00 to 8.00	
O=C(CC1CCOCC1)Nc1ccc(-c2onc3ccc(C(=O)O)cc23)cc1 [Compound 37]					pIC50 (IPMK; enzyme-coupled assay, Table 2): 4.00 to 6.00; pIC50 (IP6K1; enzyme-coupled assay, Table 2): 4.00 to 6.00; pIC50 (IP6K3; enzyme-coupled assay, Table 2): 4.00 to 6.00; pIC50 (IP6K2; enzyme-coupled assay, Table 2): 4.00 to 6.00

Second part, led by results:

pIC50 (IPMK; enzyme-coupled assay, Table 4)	pIC50 (IP6K1; enzyme-coupled assay, Table 4)	pIC50 (IP6K3; enzyme-coupled assay, Table 4)	pIC50 (IP6K2; enzyme-coupled assay, Table 4)	Compound	also measured
7.00 to 8.00	7.00 to 8.00	6.00 to 7.00	7.00 to 8.00	Fc1ccc(-c2onc3ccc(-c4nnn[nH]4)cc23)cc1 [Compound 63]	
> 8.00	7.00 to 8.00	7.00 to 8.00	7.00 to 8.00	O=C(Nc1cccc(-c2onc3ccc(-c4nnn[nH]4)cc23)c1)C1CC1 [Compound 74]	
7.00 to 8.00	7.00 to 8.00	6.00 to 7.00	6.00 to 7.00	Clc1ccc(-c2onc3ccc(-c4nnn[nH]4)cc23)cc1Cl [Compound 67]	
> 8.00	6.00 to 7.00	6.00 to 7.00	6.00 to 7.00	CC(C)C(=O)Nc1cccc(-c2onc3ccc(-c4nnn[nH]4)cc23)c1 [Compound 75]	
> 8.00	7.00 to 8.00	6.00 to 7.00	7.00 to 8.00	Clc1ccccc1-c1onc2ccc(-c3nnn[nH]3)cc12 [Compound 76]	
> 8.00	6.00 to 7.00	6.00 to 7.00	6.00 to 7.00	CN(C)CCOc1cccc(-c2onc3ccc(-c4nnn[nH]4)cc23)c1 [Compound 78]	
7.00 to 8.00	7.00 to 8.00	6.00 to 7.00	6.00 to 7.00	c1cc(OCCN2CCOCC2)cc(-c2onc3ccc(-c4nnn[nH]4)cc23)c1 [Compound 83]	
> 8.00	7.00 to 8.00	> 8.00	6.00 to 7.00	O=C(Nc1ccc(-c2onc3ccc(-c4nnn[nH]4)cc23)cc1)C1CC1 [Compound 71]	
7.00 to 8.00	7.00 to 8.00	> 8.00	7.00 to 8.00	O=C(Nc1ccc(-c2onc3ccc(-c4nnn[nH]4)cc23)cc1)C1CCCC1 [Compound 72]	
7.00 to 8.00	7.00 to 8.00	6.00 to 7.00	7.00 to 8.00	c1ccc(-c2onc3ccc(-c4nnn[nH]4)cc23)cc1 [Compound 59]	
> 8.00	7.00 to 8.00	7.00 to 8.00	7.00 to 8.00	O=C(Nc1cccc(-c2onc3ccc(-c4nnn[nH]4)cc23)c1)C1CCCC1 [Compound 73]	
